Experimental data taken from PMC6268642, “Facile Synthesis and Herbicidal Evaluation of 4H-3,1-Benzoxazin-4-ones and 3H-Quinazolin-4-ones with 2-Phenoxymethyl Substituents” (Molecules, 2012).
Like-named read-outs stand apart in the source and are kept apart here.

Key:
[1] = test system: barnyard grass Echinochloa crusgalli; test: Petri dish culture, growth inhibition of root and stalk of barnyard grass; assay type: in vivo; conditions: 5 days; for inhibition at 1 µg/mL / inhibition at 10 µg/mL: Echinochloa crus-galli, 120 h
Method: (§1) The synthesized compounds were tested for the herbicidal activity on model plants including a monocotyledon (barnyard grass) and a dicotyledon (rape) by the reported Petri dish culture method. The percent inhibitory ratios against the growth of root and stalk of barnyard grass and rape at different dosage concentrations were calculated, and the compounds with appreciable inhibitory potencies are selected and shown in Table 1 and Table 2. Several features of the inhibitory activities can be derived. First, all the compounds have stronger inhibition against the growth of the dicotyledon rape than against the monocotyledon barnyard grass, showing appreciable selectivity.
(§2) The herbicidal activity was examined for the growth inhibition effect of the dicotyledon rape Brassica napus and the monocotyledon barnyard grass Echinochloa crusgalli, using the standard Petri dish test and the pre-emergence treatment procedure. […] Nine mL of the solution was added in a Petri dish of 9 cm diameter and two pieces of filter paper were placed on the dish bottom. Twenty seeds each of rape and barnyard grass were placed on the filter paper. The covered Petri dish was transferred into an artificial climate incubator (MGC-400H, Shantou Keyi Co., Ltd., China), where the conditions were controlled at temperature 23 ± 1 °C, humidity 60 ± 5%, light intensity 10 Klux, and photoperiod 12 h/day. The incubation was continued for 5 days, then the lengths of 10 roots and 10 stems for each type of plant were measured and the mean values were calculated. The percent inhibitory ratios were calculated relative to control plants exposing to distilled water instead of the compound solution.

rape Brassica napus [2] = test: Petri dish culture, growth inhibition of root and stalk of rape; assay type: in vivo; conditions: 5 days; for inhibition at 1 µg/mL / inhibition at 10 µg/mL: Brassica napus, 120 h
Method: as §1, §2

rape Brassica napus [3] = test: Concentration-dependent root elongation inhibition of rape (IC50); assay type: in vivo; conditions: for IC50: rape root elongation, Table 3, read-out: IC50 for the root elongation inhibition of rape
Method: Several representative compounds selected from the 2-phenoxy-4H-3,1-benzoxazin-4-one and 2-phenoxy-3H-quinazolin-4-one groups were tested their concentration dependant activities and the half maximal inhibitory concentrations (IC50 values) are shown in Table 3. Obviously, the 2-phenoxy-4H-3,1-benzoxazin-4-ones 3m and 3o have IC50 values near to that of the commercial herbicidal 2,4-D. More importantly, these molecules consist of 2-phenoxymethyl group with halo substituents both at the 2- and 4- positions of the benzene ring, a similar pattern to the commercial hormone herbicides 2,4-D, clomeprop, and 2,4-DB, as well as the ACCase herbicide diclofop-methyl. […] Moreover, if no halo group exists on the benzene ring, the activity will decrease dramatically. On the other hand, the substructure 4H-3,1-benzoxazin-4-one in this work and the carboxylic group in the commercial phenoxyethanoic and phenoxypropionic acid herbicides play also a crucial role in the contribution to the activities of the compounds, meaning they are active substructures.
The herbicidal activity was examined for the growth inhibition effect of the dicotyledon rape Brassica napus and the monocotyledon barnyard grass Echinochloa crusgalli, using the standard Petri dish test and the pre-emergence treatment procedure. Briefly, the compounds to be tested were dissolved in DMF and emulsified with Tween 80, and the solutions were diluted with water to the concentrations of […], respectively. Nine mL of the solution was added in a Petri dish of 9 cm diameter and two pieces of filter paper were placed on the dish bottom. Twenty seeds each of rape and barnyard grass were placed on the filter paper. The covered Petri dish was transferred into an artificial climate incubator (MGC-400H, Shantou Keyi Co., Ltd., China), where the conditions were controlled at temperature 23 ± 1 °C, humidity 60 ± 5%, light intensity 10 Klux, and photoperiod 12 h/day. The incubation was continued for 5 days, then the lengths of 10 roots and 10 stems for each type of plant were measured and the mean values were calculated. The percent inhibitory ratios were calculated relative to control plants exposing to distilled water instead of the compound solution.

[4] = 1 mg/L, root growth, read-out: Relative inhibition, root
[5] = 1 mg/L, stalk growth, read-out: Relative inhibition, stalk
[6] = 10 mg/L, root growth, read-out: Relative inhibition, root
[7] = 10 mg/L, stalk growth, read-out: Relative inhibition, stalk

Compound	Relative inhibition, root ([1]; 1 mg/L, root growth) [%]	Relative inhibition, stalk ([1]; 1 mg/L, stalk growth) [%]	Relative inhibition, root ([1]; 10 mg/L, root growth) [%]	Relative inhibition, stalk ([1]; 10 mg/L, stalk growth) [%]	Relative inhibition, root (rape Brassica napus [2]; 1 mg/L, root growth) [%]	Relative inhibition, stalk (rape Brassica napus [2]; 1 mg/L, stalk growth) [%]	Relative inhibition, root (rape Brassica napus [2]; 10 mg/L, root growth) [%]	Relative inhibition, stalk (rape Brassica napus [2]; 10 mg/L, stalk growth) [%]	IC50 (rape Brassica napus [3]) [µM]	herbicidal activity (control experiment) (rape Brassica napus [3]; compound without the 4H-3,1-benzoxazin-4-one substructure, plant not stated)	melting point [°C]	inhibition at 1 µg/mL [1, 4] [%]	inhibition at 1 µg/mL [1, 5] [%]	inhibition at 10 µg/mL [1, 6] [%]	inhibition at 10 µg/mL [1, 7] [%]	inhibition at 1 µg/mL (rape Brassica napus [2]; [4]) [%]	inhibition at 1 µg/mL (rape Brassica napus [2]; [5]) [%]	inhibition at 10 µg/mL (rape Brassica napus [2]; [6]) [%]	inhibition at 10 µg/mL (rape Brassica napus [2]; [7]) [%]	IC50 (rape Brassica napus [3]; Brassica napus) [µM]
3-Amino-7-chloro-2-((2,4-dichlorophenoxy)methyl)-3H-quinazolin-4-one [4i]	24.3	−7.2	68.5	38.1	93.6	92.3	98.2	95.7	27.2	–	–	–	–	–	–	–	–	–	–	–
CCOc1ccc(Cl)cc1Cl [2,4-dichlorophenyl ethyl ether, reference compound]	–	–	–	–	–	–	–	–	–	loses nearly all of its herbicidal activity	–	–	–	–	–	–	–	–	–	–
O=c1oc(COc2ccc(Cl)cc2)nc2ccccc12 [3g, 2-((4-Chlorophenoxy)methyl)-4H-3,1-benzoxazin-4-one]	–	–	–	–	–	–	–	–	–	–	147.5 to 149.2	53.7	-25.6	79.5	-1.8	98	56.8	100	68	30.4
O=c1oc(COc2ccc(Cl)cc2)nc2cccc(Cl)c12 [3h, 5-Chloro-2-((4-chlorophenoxy)methyl)-4H-3,1-benzoxazin-4-one]	–	–	–	–	–	–	–	–	–	–	144.3 to 145.7	59.8	14.7	88.7	41.9	96.3	62	100	91.7	138
O=c1oc(COc2ccc(Cl)cc2)nc2ccc(Cl)cc12 [3i, 6-Chloro-2-((4-chlorophenoxy)methyl)-4H-3,1-benzoxazin-4-one]	–	–	–	–	–	–	–	–	–	–	153.2 to 154.6	55.3	-7.3	87.8	13.2	91.4	40.2	100	82.1	22.3
COc1cc2nc(COc3ccc(Cl)cc3)oc(=O)c2cc1OC [3l, 2-((4-Chlorophenoxy)methyl)-6,7-dimethoxy-4H-3,1-benzoxazin-4-one]	–	–	–	–	–	–	–	–	–	–	118.5 to 119.3	65.5	12.8	78.7	22	96.3	74.5	100	83.4	80.1
COc1cc2nc(COc3ccc(Cl)cc3)n(N)c(=O)c2cc1OC [4e, 3-Amino-2-((4-chlorophenoxy)methyl)-6,7-dimethoxy-3H-quinazolin-4-one]	–	–	–	–	–	–	–	–	–	–	202.8 to 204.1	13.8	2.9	23.3	11.9	21.9	1.5	30.8	6.4	–
Nn1c(COc2ccc(Cl)cc2Cl)nc2cccc(Cl)c2c1=O [4g, 3-Amino-5-chloro-2-((2,4-dichlorophenoxy)methyl)-3H-quinazolin-4-one]	–	–	–	–	–	–	–	–	–	–	201.5 to 202	11.8	-5.9	25.8	-1.8	5.7	10	17.5	44.9	–
Nn1c(COc2ccc(Cl)cc2Cl)nc2ccc(Cl)cc2c1=O [4h, 3-Amino-6-chloro-2-((2,4-dichlorophenoxy)methyl)-3H-quinazolin-4-one]	–	–	–	–	–	–	–	–	–	–	223.6 to 224.9	20	-42	37.5	-12.7	7.5	10.7	22	19.9	–
Cn1c(COc2ccc(Cl)cc2)nc2ccc(Cl)cc2c1=O [4l, 6-Chloro-2-((4-chlorophenoxy)methyl)-3-methyl-3H-quinazolin-4-one]	–	–	–	–	–	–	–	–	–	–	179.9 to 181.2	24.7	8.9	33.7	11.9	28.5	1.5	42.2	10.8	–
Cn1c(COc2ccc(Cl)cc2)nc2cc(Cl)ccc2c1=O [4m, 7-Chloro-2-((4-chlorophenoxy)methyl)-3-methyl-3H-quinazolin-4-one]	–	–	–	–	–	–	–	–	–	–	202.4 to 203.9	14.8	7.5	29.2	14.9	26.2	1.5	27.9	-0.5	–
Cc1ccc2nc(COc3ccc(Cl)cc3)n(C)c(=O)c2c1 [4n, 2-((4-Chlorophenoxy)methyl)-3,6-dimethyl-3H-quinazolin-4-one]	–	–	–	–	–	–	–	–	–	–	196.4 to 197.6	26.7	14.9	43.5	14.9	39.4	7.8	45	16.6	–
COc1cc2nc(COc3ccc(Cl)cc3)n(C)c(=O)c2cc1OC [4o, 2-((4-Chlorophenoxy)methyl)-6,7-dimethoxy-3-methyl-3H-quinazolin-4-one]	–	–	–	–	–	–	–	–	–	–	201.8 to 202.7	13.3	8.9	17.3	5.9	25.1	1.9	34.8	-6.8	–
Cn1c(COc2ccc(Cl)cc2Cl)nc2ccccc2c1=O [4p, 2-((2,4-Dichlorophenoxy)methyl)-3-methy-3H-quinazolin-4-one]	–	–	–	–	–	–	–	–	–	–	172.1 to 173.4	2.5	-10.9	29.4	-47.3	4.5	27.1	21.2	29.2	–
Cn1c(COc2ccc(Cl)cc2Cl)nc2ccc(Cl)cc2c1=O [4q, 6-Chloro-2-((2,4-dichlorophenoxy)methyl)-3-methyl-3H-quinazolin-4-one]	–	–	–	–	–	–	–	–	–	–	240.1 to 241.8	24.3	5.4	31.9	-3.6	8.1	14.4	19.3	38.9	–
COc1cc2nc(COc3ccc(Cl)cc3Cl)n(C)c(=O)c2cc1OC [4s, 2-((2,4-Dichlorophenoxy)methyl)-6,7-dimethoxy-3-methyl-3H-quinazolin-4-one]	–	–	–	–	–	–	–	–	–	–	243.9 to 245.2	30	-20.3	52.2	-54.5	7.1	8.1	20.7	20.3	–
